# Measured values as given in patent US20250296959A1, “B7-H3 TARGETING PEPTIDES AND CONSTRUCTS THEREOF” (Mariana Oncology Inc., priority 2024, published 2025).
# Starred links: 1 amine or outer side, 2 acyl side, 3 side chain; linkers in the order of their positions; H or OH if unused. Positions of bridges follow the written chain, without caps; N, C: chain ends. Non-standard residues stand in square brackets, D forms with d. Residues, ends and D or L forms follow the SMILES beside them. Groups on a side chain read outwards from the residue. *: point of attachment. Ala(1-CH2CO2H-4-piperidyl) = N[C@@H](CC1CCN(CC(=O)O)CC1)C(=O)O; Ala(piperidin-4-yl) = O=C([C@H](CC1CCN([*:3])CC1)N[*:1])[*:2]; Phe(3R-OH) = O=C([C@@H](N[*:1])[C@H](O[*:3])c1ccccc1)[*:2]; DOTA = O=C(O)CN1CCN(CC(=O)O)CCN(CC(=O)*)CCN(CC(=O)O)CC1; Phe(4-COOH) = N[C@@H](Cc1ccc(C(=O)O)cc1)C(=O)O; Trp(5-F) = N[C@@H](Cc1c[nH]c2ccc(F)cc12)C(=O)O; Ala(4-THP) = N[C@@H](CC1CCOCC1)C(=O)O; Val(3-OH) = CC(C)(O)[C@H](N)C(=O)O; Hyp = O=C(O)[C@@H]1C[C@@H](O)CN1; pGlu = O=C1CC[C@@H](C(=O)O)N1; Chg = N[C@H](C(=O)O)C1CCCCC1; Tle = CC(C)(C)[C@H](N)C(=O)O; hLeu = CC(C)CC[C@H](N)C(=O)O; Nle = CCCC[C@H](N)C(=O)O; Dab = NCC[C@H](N)C(=O)O; PEG2 = NCCOCCOCCC(=O)O; CH2 = C([*:1])[*:2]
# Molecular target: T1, human 4lg B7-H3 (Homo sapiens, UniProt Q5ZPR3)
# T1 sequence (Q5ZPR3 29-534): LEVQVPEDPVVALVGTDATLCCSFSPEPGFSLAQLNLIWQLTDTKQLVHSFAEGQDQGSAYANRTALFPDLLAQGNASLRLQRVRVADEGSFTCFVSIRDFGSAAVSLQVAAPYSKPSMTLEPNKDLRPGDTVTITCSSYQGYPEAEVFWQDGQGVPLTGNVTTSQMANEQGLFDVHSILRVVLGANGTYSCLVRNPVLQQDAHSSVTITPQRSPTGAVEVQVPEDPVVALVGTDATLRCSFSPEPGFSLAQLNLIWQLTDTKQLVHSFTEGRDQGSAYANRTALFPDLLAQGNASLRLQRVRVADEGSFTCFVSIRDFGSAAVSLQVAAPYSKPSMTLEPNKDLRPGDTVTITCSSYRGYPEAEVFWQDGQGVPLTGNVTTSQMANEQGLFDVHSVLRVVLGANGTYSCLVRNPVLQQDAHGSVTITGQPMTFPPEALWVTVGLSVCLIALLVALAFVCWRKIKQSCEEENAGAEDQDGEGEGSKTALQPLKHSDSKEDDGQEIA
# Assay: Affinity determination by surface plasmon resonance (SPR) to 4Ig B7-H3
# Conditions: SPR KD—25° C., 4Ig B7-H3; 25° C. flow cell temperature
row,Kd,SMILES
1,10 to 100 nM,"CCCC[C@H](NC(C)=O)C(=O)N[C@@H](Cc1ccc(O)cc1)C(=O)N[C@H]1CSSC[C@@H](C(=O)N[C@@H](Cc2c[nH]c3ccccc23)C(=O)N[C@@H](Cc2ccccc2)C(=O)N[C@H](C(=O)N[C@H](CCCCNC(=O)CN2CCN(CC(=O)O)CCN(CC(=O)O)CCN(CC(=O)O)CC2)C(N)=O)[C@@H](C)O)NC(=O)[C@H](Cc2ccc(O)cc2)NC(=O)[C@H](C(C)C)NC(=O)[C@H](CCN)NC(=O)[C@H](Cc2ccc(O)cc2)NC(=O)[C@H](CCCCN)NC(=O)CNC(=O)[C@H](C(C)C)NC1=O [compound 552, Ac-Nle-Y-C-V-G-K-Y-Dab-V-Y-C-W-F-Thr-dLys(DOTA)-CONH2] (Ac-[Nle]YCVGKY[Dab]VYCWFT[dK](DOTA)-NH2; disulfide 3-11)"
2,100 to 300 nM,"CC(=O)N[C@@H](CCC(C)C)C(=O)N[C@@H](Cc1ccc(O)cc1)C(=O)N[C@H]1CSCSC[C@@H](C(=O)N[C@@H](Cc2c[nH]c3ccc(F)cc23)C(=O)N[C@@H](Cc2ccccc2)C(=O)N[C@H](C(=O)N[C@H](CCCCNC(=O)CN2CCN(CC(=O)O)CCN(CC(=O)O)CCN(CC(=O)O)CC2)C(N)=O)[C@@H](C)O)NC(=O)[C@H](Cc2ccc(O)cc2)NC(=O)[C@H](C(C)C)NC(=O)[C@H](CC(=O)O)NC(=O)[C@H](Cc2ccc(O)cc2)NC(=O)[C@H](CCCCN)NC(=O)CNC(=O)[C@H](C(C)C)NC1=O [compound 189, Ac-hLeu-Y-C(CH2)-V-G-K-Y-D-V-Y-C-5FW-F-Thr-dLys(DOTA)-CONH2] (Ac-[hLeu]YCVGKYDVYC[Trp(5-F)]FT[dK](DOTA)-NH2; linker 3-11 via CH2)"
3,1 to 10 nM,"CC(=O)N[C@@H](CCC(C)C)C(=O)N[C@@H](Cc1ccc(O)cc1)C(=O)N[C@H]1CSSC[C@@H](C(=O)N[C@@H](Cc2c[nH]c3ccc(F)cc23)C(=O)N[C@@H](Cc2ccccc2)C(=O)N2C[C@H](O)C[C@H]2C(=O)N[C@H](CCCCNC(=O)CN2CCN(CC(=O)O)CCN(CC(=O)O)CCN(CC(=O)O)CC2)C(N)=O)NC(=O)[C@H](Cc2ccc(O)cc2)NC(=O)[C@H](C(C)C)NC(=O)[C@H](CC(=O)O)NC(=O)[C@H](Cc2ccc(O)cc2)NC(=O)[C@H](CCCCN)NC(=O)CNC(=O)[C@H](C(C)C)NC1=O [compound 161, Ac-hLeu-Y-C-V-G-K-Y-D-V-Y-C-5FW-F-4OHPro-dLys(DOTA)-CONH2] (Ac-[hLeu]YCVGKYDVYC[Trp(5-F)]F[Hyp][dK](DOTA)-NH2; disulfide 3-11)"
4,< 1 nM,"CC(=O)N[C@@H](CCC(C)C)C(=O)N[C@@H](Cc1ccc(O)cc1)C(=O)N[C@H]1CSSC[C@@H](C(=O)N[C@@H](Cc2c[nH]c3ccccc23)C(=O)N[C@@H](Cc2ccccc2)C(=O)N[C@H](C(=O)N[C@H](CCCCNC(=O)CN2CCN(CC(=O)O)CCN(CC(=O)O)CCN(CC(=O)O)CC2)C(N)=O)[C@@H](C)O)NC(=O)[C@H](Cc2ccc(O)cc2)NC(=O)[C@H](C2CCCCC2)NC(=O)[C@H](CC(=O)O)NC(=O)[C@H](Cc2ccc(O)cc2)NC(=O)[C@H](CCCCN)NC(=O)CNC(=O)[C@H](C(C)(C)C)NC1=O [compound 216, Ac-hLeu-Y-C-Tbg-G-K-Y-D-ChG-Y-C-W-F-Thr-dLys(DOTA)-CONH2] (Ac-[hLeu]YC[Tle]GKYD[Chg]YCWFT[dK](DOTA)-NH2; disulfide 3-11)"

# Same assay, conditions: SPR KD—37° C., 4Ig B7-H3; 37° C. flow cell temperature
row,Kd,SMILES
1,1 to 10 nM,"CC(C)CC[C@H](NC(=O)[C@@H]1CCC(=O)N1)C(=O)N[C@@H](Cc1ccc(O)cc1)C(=O)N[C@H]1CSSC[C@@H](C(=O)N[C@@H](Cc2c[nH]c3ccc(F)cc23)C(=O)N[C@@H](Cc2ccccc2)C(=O)N[C@H](C(=O)N[C@H](CCCCNC(=O)CN2CCN(CC(=O)O)CCN(CC(=O)O)CCN(CC(=O)O)CC2)C(=O)O)C(C)(C)O)NC(=O)[C@H](Cc2ccc(O)cc2)NC(=O)[C@H](C(C)C)NC(=O)[C@H](CC(=O)O)NC(=O)[C@H](CC2CCOCC2)NC(=O)[C@H](CC2CCNCC2)NC(=O)CNC(=O)[C@H](C(C)(C)C)NC1=O [Cpd #477, Pyroglutamate-hLeu-Y-C-Tbg-G-PipAla-ThpA-D-V-Y-C-5FW-F-hydroxyVal-dLys(DOTA)-COOH] ([pGlu][hLeu]YC[Tle]G[Ala(piperidin-4-yl)][Ala(4-THP)]DVYC[Trp(5-F)]F[Val(3-OH)][dK](DOTA)-OH; disulfide 4-12)"
2,10 to 100 nM,"CCCC[C@H](NC(C)=O)C(=O)N[C@@H](Cc1ccc(O)cc1)C(=O)N[C@H]1CSSC[C@@H](C(=O)N[C@@H](Cc2c[nH]c3ccccc23)C(=O)N[C@@H](Cc2ccccc2)C(N)=O)NC(=O)[C@H](Cc2ccc(O)cc2)NC(=O)[C@H](C(C)C)NC(=O)[C@H](CC(=O)O)NC(=O)[C@H](Cc2ccc(C(=O)O)cc2)NC(=O)[C@H](CCCCN)NC(=O)CNC(=O)[C@H](C(C)C)NC1=O [compound 24, Ac-Nle-Y-C-V-G-K-4COOHPhe-D-V-Y-C-W-F-CONH2] (Ac-[Nle]YCVGK[Phe(4-COOH)]DVYCWF-NH2; disulfide 3-11)"
3,< 1 nM,"CC(=O)N[C@@H](CCC(C)C)C(=O)N[C@@H](Cc1ccc(O)cc1)C(=O)N[C@H]1CSSC[C@@H](C(=O)N[C@@H](Cc2c[nH]c3ccc(F)cc23)C(=O)N[C@H](C(=O)N[C@H](C(=O)N[C@H](CCCCNC(=O)CN2CCN(CC(=O)O)CCN(CC(=O)O)CCN(CC(=O)O)CC2)C(=O)O)C(C)(C)O)[C@H](O)c2ccccc2)NC(=O)[C@H](Cc2ccc(O)cc2)NC(=O)[C@H](C(C)C)NC(=O)[C@H](CC(=O)O)NC(=O)[C@H](CC2CCOCC2)NC(=O)[C@H](CC2CCNCC2)NC(=O)CNC(=O)[C@H](C(C)(C)C)NC1=O [compound 469, Ac-hLeu-Y-C-Tbg-G-PipAla-ThpA-D-V-Y-C-5FW-[(2S, 3R)beta-OH-Phe]-hydroxyVal-dLys(DOTA)-COOH] (Ac-[hLeu]YC[Tle]G[Ala(piperidin-4-yl)][Ala(4-THP)]DVYC[Trp(5-F)][Phe(3R-OH)][Val(3-OH)][dK](DOTA)-OH; disulfide 3-11)"
4,< 1 nM,"CC(=O)N[C@@H](CCC(C)C)C(=O)N[C@@H](Cc1ccc(O)cc1)C(=O)N[C@H]1CSSC[C@@H](C(=O)N[C@@H](Cc2c[nH]c3ccc(F)cc23)C(=O)N[C@@H](Cc2ccccc2)C(=O)N[C@H](C(=O)N[C@H](CCC(=O)O)C(N)=O)C(C)(C)O)NC(=O)[C@H](Cc2ccc(O)cc2)NC(=O)[C@H](C(C)C)NC(=O)[C@H](CC(=O)O)NC(=O)[C@H](CC2CCN(C(=O)CCOCCOCCNC(=O)CN3CCN(CC(=O)O)CCN(CC(=O)O)CCN(CC(=O)O)CC3)CC2)NC(=O)[C@H](CC2CCNCC2)NC(=O)CNC(=O)[C@H](C(C)(C)C)NC1=O [Cpd #458, Ac-hLeu-Y-C-Tbg-G-PipAla-Pip(PEG2-DOTA)Ala-D-V-Y-C-5FW-F-hydroxyVal-dGlu-CONH2] (Ac-[hLeu]YC[Tle]G[Ala(piperidin-4-yl)][Ala(piperidin-4-yl)]([PEG2-DOTA])DVYC[Trp(5-F)]F[Val(3-OH)][dE]-NH2; disulfide 3-11)"
5,1 to 10 nM,"CC(=O)N[C@@H](CCC(C)C)C(=O)N[C@@H](Cc1ccc(O)cc1)C(=O)N[C@H]1CSSC[C@@H](C(=O)N[C@@H](Cc2c[nH]c3ccc(F)cc23)C(=O)N[C@@H](Cc2ccccc2)C(=O)N[C@H](C(=O)N[C@H](CCC(=O)O)C(N)=O)C(C)(C)O)NC(=O)[C@H](Cc2ccc(O)cc2)NC(=O)[C@H](C(C)C)NC(=O)[C@H](CC(=O)O)NC(=O)[C@H](CC2CCN(CC(=O)O)CC2)NC(=O)[C@H](CCCCNC(=O)CN2CCN(CC(=O)O)CCN(CC(=O)O)CCN(CC(=O)O)CC2)NC(=O)CNC(=O)[C@H](C(C)(C)C)NC1=O [compound 421, Ac-hLeu-Y-C-Tbg-G-Lys(DOTA)-Pip(CH2COOH)Ala-D-V-Y-C-5FW-F-hydroxyVal-dGlu-CONH2] (Ac-[hLeu]YC[Tle]GK(DOTA)[Ala(1-CH2CO2H-4-piperidyl)]DVYC[Trp(5-F)]F[Val(3-OH)][dE]-NH2; disulfide 3-11)"
